Laboratory results reported in patent US20060069132A1, “Azolecarboxamide herbicides” (priority 2004, published 2006).

Tests used:
cocklebur = assay: Test B pre-/postemergence herbicide test; format: in vivo, Xanthium strumarium
Summary of the method: (§1)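 Species tested were Echinochloa crus-galli, Ipomoea coccinea, Xanthium strumarium and Oryza sativa, treated both before emergence and at the 1- to 4-leaf stage; rice and barnyardgrass were also tested under flooding at 2 leaves. Greenhouse incubation lasted 13–15 days before visual 0–100 scoring.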

lambsquarters = assay: Test B pre-/postemergence herbicide test; format: in vivo, Chenopodium album
Summary of the method: (§2)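 Formulation: non-phytotoxic solvent mix with surfactant. Timing: preemergence on seed and postemergence on 2–18 cm plants, applied concurrently. Readout after 13–15 d greenhouse: visual 0–100 control rating against controls.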

giant foxtail = assay: Test B pre-/postemergence herbicide test; format: in vivo, Setaria faberi
Summary of the method: as §2

rice = assay: Test B flooded paddy test; format: in vivo, Oryza sativa; conditions: 1000 g ai/ha, scale 0 to 100 (0 no effect, 100 complete control)
Summary of the method: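 Scale 0–100: zero equals no visible effect, 100 complete control, judged by eye relative to controls. Timing: 13 to 15 days in greenhouse post-treatment. Growth stage at spraying: two leaves (paddy) or one to four leaves, 2–18 cm (postemergence).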

ducksalad = assay: Test B flooded paddy test; format: in vivo, Heteranthera limosa; conditions: 1000 g ai/ha, scale 0 to 100 (0 no effect, 100 complete control)
Summary of the method: (§3)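 Plants grow to 1- to 4-leaf stage (2–18 cm) for postemergence spraying, or to 2-leaf stage for the paddy test. Formulated compound is applied. Greenhouse holding lasts 13–15 days. Response is scored visually relative to controls, 0 no effect to 100 complete control; a dash means no result.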

barnyardgrass [1] = assay: Test B pre-/postemergence herbicide test; format: in vivo, Echinochloa crus-galli
Summary of the method: as §1

Surinam grass = assay: Test B pre-/postemergence herbicide test; format: in vivo, Urochloa decumbens
Summary of the method: as §2

wild oat = assay: Test B postemergence herbicide test; format: in vivo, Avena fatua
Summary of the method: (§4)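 Formulated test chemicals went onto postemergence plants measuring 2 to 18 cm, at one to four leaves. For the paddy assay, species had reached two leaves. Scoring took place 13–15 days later by eye, relative to untreated plants, using 0 for no effect up to 100 for full control.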

wheat = assay: Test B postemergence herbicide test; format: in vivo, Triticum aestivum; design: key to Wheat plant response rating: 0 = no effect, 100 = complete control
Summary of the method: as §4

barnyardgrass [2] = assay: Test B flooded paddy test; format: in vivo, Echinochloa crus-galli; conditions: 1000 g ai/ha, scale 0 to 100 (0 no effect, 100 complete control)
Summary of the method: as §3

velvetleaf = assay: Test B pre-/postemergence herbicide test; format: in vivo, Abutilon theophrasti
Summary of the method: as §2

large crabgrass = assay: Test B pre-/postemergence herbicide test; format: in vivo, Digitaria sanguinalis
Summary of the method: as §2

[3] = test system: small flower umbrella sedge; assay: Test B flooded paddy test; format: in vivo, Cyperus difformis; conditions: 1000 g ai/ha, scale 0 to 100 (0 no effect, 100 complete control)
Summary of the method: as §3

pigweed = assay: Test B pre-/postemergence herbicide test; format: in vivo, Amaranthus retroflexus
Summary of the method: as §2

morningglory = assay: Test B pre-/postemergence herbicide test; format: in vivo, Ipomoea coccinea
Summary of the method: as §1

[4] = 125 g ai/ha; 0 is no effect, 100 is complete control; preemergence
[5] = 125 g ai/ha; visual rating, scale 0 (no effect) to 100 (complete control); postemergence
[6] = 500 g ai/ha; visual rating, 0 = no effect, 100 = complete control; preemergence
[7] = postemergence, 500 g ai/ha; scale 0 to 100, 0 is no effect, 100 is complete control
[8] = 125 g ai/ha; 0 = no effect, 100 = complete control; preemergence
[9] = postemergence, 125 g ai/ha; visual rating, scale 0 (no effect) to 100 (complete control)
[10] = postemergence, 500 g ai/ha; visual rating, scale 0 (no effect) to 100 (complete control)
[11] = 500 g ai/ha; visual rating 0-100, 0 no effect, 100 complete control; preemergence
[12] = preemergence, 125 g ai/ha; 0 to 100 scale, 0 is no effect, 100 is complete control

CCC1=NN(C(C)(C)C)CC1C(=O)Nc1cc(C(=O)N(C)CC)ccc1F (racemic) [Compound 342]
30: Oat, Wild plant response rating (wild oat; [7]) | Morningglory plant response rating (morningglory; [5])
0: Wheat plant response rating (wheat; [5])
60: Lambsquarters plant response rating (lambsquarters; [5])
50: Foxtail, Giant plant response rating (giant foxtail; [7]) | Plant response rating (0 to 100 scale), Surinam Grass (Surinam grass; [4]) | Velvetleaf plant response rating (velvetleaf; [7])
70: Rice plant response rating (rice) | Plant response rating (0 to 100 scale), Barnyardgrass (barnyardgrass [1]; [4]) | Plant response rating (0 to 100 scale), Velvetleaf (velvetleaf; [4]) | Sedge, Umbrella plant response rating [3] | Plant response rating, Morningglory (morningglory; [6])
40: Plant response rating (0 to 100 scale), Cocklebur (cocklebur; [4]) | Plant response rating (0 to 100 scale), Foxtail, Giant (giant foxtail; [4]) | Plant response rating (0 to 100 scale), Crabgrass, Large (large crabgrass; [4]) | Pigweed plant response rating (pigweed; [5])
80: Plant response rating (0 to 100 scale), Lambsquarters (lambsquarters; [4]) | Ducksalad plant response rating (ducksalad) | Plant response rating (0 to 100 scale), Pigweed (pigweed; [4]) | Pigweed plant response rating (pigweed; [7]) | Morningglory plant response rating (morningglory; [7])
100: Plant response rating, Lambsquarters (lambsquarters; [6]) | Lambsquarters plant response rating (lambsquarters; [7]) | Plant response rating, Barnyardgrass (barnyardgrass [1]; [6]) | Plant response rating, Surinam Grass (Surinam grass; [6]) | Plant response rating, Crabgrass, Large (large crabgrass; [6]) | Plant response rating, Pigweed (pigweed; [6])
90: Plant response rating, Cocklebur (cocklebur; [6]) | Plant response rating, Foxtail, Giant (giant foxtail; [6]) | Barnyardgrass plant response rating (barnyardgrass [2])
10: Cocklebur plant response rating (cocklebur; [5]) | Barnyardgrass plant response rating (barnyardgrass [1]; [5]) | Surinam Grass plant response rating (Surinam grass; [5]) | Wheat plant response rating (wheat; [7]) | Crabgrass, Large plant response rating (large crabgrass; [5]) | Plant response rating (0 to 100 scale), Morningglory (morningglory; [4])
20: Cocklebur plant response rating (cocklebur; [7]) | Foxtail, Giant plant response rating (giant foxtail; [5]) | Barnyardgrass plant response rating (barnyardgrass [1]; [7]) | Surinam Grass plant response rating (Surinam grass; [7]) | Oat, Wild plant response rating (wild oat; [5]) | Velvetleaf plant response rating (velvetleaf; [5]) | Crabgrass, Large plant response rating (large crabgrass; [7])

CCc1nc(C(C)(C)C)sc1C(=O)Nc1cccc(C(=O)NCC2CC2)n1 [Compound 215]
0: Cocklebur plant response rating (0 to 100 scale) (cocklebur; [8]) | Plant response rating, Cocklebur (cocklebur; [6]) | Lambsquarters plant response rating (lambsquarters; [9]) | Lambsquarters plant response rating (lambsquarters; [10]) | Foxtail, Giant plant response rating (0 to 100 scale) (giant foxtail; [8]) | Foxtail, Giant plant response rating (giant foxtail; [9]) | Barnyardgrass plant response rating (barnyardgrass [1]; [9]) | Surinam Grass plant response rating (0 to 100 scale) (Surinam grass; [8]) | Surinam Grass plant response rating (Surinam grass; [9]) | Wheat plant response rating (wheat; [9]) | Velvetleaf plant response rating (0 to 100 scale) (velvetleaf; [8]) | Crabgrass, Large plant response rating (0 to 100 scale) (large crabgrass; [8]) | Crabgrass, Large plant response rating (large crabgrass; [9]) | Crabgrass, Large plant response rating (large crabgrass; [10]) | Morningglory plant response rating (morningglory; [9])
70: Plant response rating, Surinam Grass (Surinam grass; [6]) | Pigweed plant response rating (pigweed; [10])
30: Rice plant response rating (rice; visual rating, 13 to 15 days) | Barnyardgrass plant response rating (barnyardgrass [2]; visual rating, 13 to 15 days)
40: Velvetleaf plant response rating (velvetleaf; [9]) | Morningglory plant response rating (morningglory; [10])
20: Cocklebur plant response rating (cocklebur; [9]) | Foxtail, Giant plant response rating (giant foxtail; [10]) | Barnyardgrass plant response rating (barnyardgrass [1]; [10]) | Oat, Wild plant response rating (wild oat; [10]) | Wheat plant response rating (wheat; [10]) | Pigweed plant response rating (pigweed; [9]) | Plant response rating, Morningglory (morningglory; [6])
80: Cocklebur plant response rating (cocklebur; [10]) | Plant response rating, Foxtail, Giant (giant foxtail; [6]) | Plant response rating, Crabgrass, Large (large crabgrass; [6]) | Pigweed plant response rating (0 to 100 scale) (pigweed; [8])
60: Plant response rating, Barnyardgrass (barnyardgrass [1]; [6]) | Plant response rating, Velvetleaf (velvetleaf; [6]) | Velvetleaf plant response rating (velvetleaf; [10])
10: Barnyardgrass plant response rating (0 to 100 scale) (barnyardgrass [1]; [8]) | Surinam Grass plant response rating (Surinam grass; [10]) | Oat, Wild plant response rating (wild oat; [9]) | Morningglory plant response rating (0 to 100 scale) (morningglory; [8])
100: Plant response rating, Lambsquarters (lambsquarters; [6]) | Plant response rating, Pigweed (pigweed; [6])
90: Lambsquarters plant response rating (0 to 100 scale) (lambsquarters; [8]) | Ducksalad plant response rating (ducksalad; visual rating, 13 to 15 days) | Sedge, Umbrella plant response rating ([3]; visual rating, 13 to 15 days)

CCn1nc(C(C)(C)C)cc1C(=O)Nc1cccc(S(=O)(=O)C(F)(F)F)c1 [Compound 134]
0: Plant response rating, Cocklebur (cocklebur; [11]) | Plant response rating, Cocklebur (cocklebur; [12])
70: Plant response rating, Foxtail, Giant (giant foxtail; [11])
10: Wheat plant response rating (wheat; [9]) | Plant response rating, Morningglory (morningglory; [12])
80: Cocklebur plant response rating (cocklebur; [9]) | Lambsquarters plant response rating (lambsquarters; [9]) | Plant response rating, Barnyardgrass (barnyardgrass [1]; [11]) | Plant response rating, Crabgrass, Large (large crabgrass; [12]) | Sedge, Umbrella plant response rating ([3]; visual rating, 13 to 15 days) | Pigweed plant response rating (pigweed; [9])
30: Foxtail, Giant plant response rating (giant foxtail; [9]) | Plant response rating, Surinam Grass (Surinam grass; [12]) | Oat, Wild plant response rating (wild oat; [9]) | Oat, Wild plant response rating (wild oat; [10]) | Velvetleaf plant response rating (velvetleaf; [9]) | Plant response rating, Velvetleaf (velvetleaf; [12]) | Crabgrass, Large plant response rating (large crabgrass; [9]) | Crabgrass, Large plant response rating (large crabgrass; [10])
40: Foxtail, Giant plant response rating (giant foxtail; [10]) | Barnyardgrass plant response rating (barnyardgrass [1]; [10]) | Surinam Grass plant response rating (Surinam grass; [10]) | Velvetleaf plant response rating (velvetleaf; [10]) | Morningglory plant response rating (morningglory; [10])
100: Cocklebur plant response rating (cocklebur; [10]) | Plant response rating, Lambsquarters (lambsquarters; [11]) | Plant response rating, Lambsquarters (lambsquarters; [12]) | Plant response rating, Crabgrass, Large (large crabgrass; [11]) | Plant response rating, Pigweed (pigweed; [11]) | Plant response rating, Pigweed (pigweed; [12])
90: Lambsquarters plant response rating (lambsquarters; [10]) | Ducksalad plant response rating (ducksalad; visual rating, 13 to 15 days) | Plant response rating, Velvetleaf (velvetleaf; [11]) | Pigweed plant response rating (pigweed; [10])
50: Plant response rating, Barnyardgrass (barnyardgrass [1]; [12]) | Plant response rating, Surinam Grass (Surinam grass; [11])
60: Rice plant response rating (rice; visual rating, 13 to 15 days) | Barnyardgrass plant response rating (barnyardgrass [2]; visual rating, 13 to 15 days)
20: Plant response rating, Foxtail, Giant (giant foxtail; [12]) | Barnyardgrass plant response rating (barnyardgrass [1]; [9]) | Surinam Grass plant response rating (Surinam grass; [9]) | Wheat plant response rating (wheat; [10]) | Plant response rating, Morningglory (morningglory; [11]) | Morningglory plant response rating (morningglory; [9])
